Key:
Experiment in all cases: Test E pre-/postemergence greenhouse test, plant response rating 0-100
Type in all cases: in vivo
[1] = tested on: Brazilian crabgrass (Digitaria horizontalis); conditions: scale 0 to 100; for Plant response rating, Crabgrass, Brazil: Postemergence; for Crabgrass, Brazil plant response rating: Preemergence
Procedure, shortened: (§1)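 Greenhouse response on a 0 (none) to 100 (complete control) scale, assessed 14 to 21 days post-treatment. Soil-applied preemergence on silt loam; foliar postemergence on plants 2–18 cm high.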

[2] = tested on: arrowleaf sida (Sida rhombifolia); conditions: for Plant response rating, Arrowleaf Sida: Postemergence; for Arrowleaf Sida plant response rating: Preemergence
Procedure, shortened: as §1

[3] = tested on: barnyardgrass (Echinochloa crus-galli); conditions: scale 0 to 100; for Plant response rating, Barnyardgrass: Postemergence; for Barnyardgrass plant response rating: Preemergence
Procedure, shortened: as §1

corn (Zea mays) = conditions: scale 0 to 100; for Plant response rating, Corn: Postemergence; for Corn plant response rating: Preemergence
Procedure, shortened: as §1

[4] = tested on: dayflower (Virginia (VA) dayflower, Commelina virginica); conditions: scale 0 to 100; for Plant response rating, Dayflower, VA: Postemergence; for Dayflower, VA plant response rating: Preemergence
Procedure, shortened: as §1

[5] = tested on: fall panicum (Panicum dichotomiflorum); conditions: scale 0 to 100; for Plant response rating, Panicum, Fall: Postemergence; for Panicum, Fall plant response rating: Preemergence
Procedure, shortened: as §1

[6] = tested on: field bindweed (Convolvulus arvensis); conditions: scale 0 to 100; for Plant response rating, Field Bindweed: Postemergence; for Field Bindweed plant response rating: Preemergence
Procedure, shortened: as §1

[7] = tested on: hairy beggarticks (Bidens pilosa); conditions: scale 0 to 100; for Plant response rating, Beggarticks: Postemergence; for Beggarticks plant response rating: Preemergence
Procedure, shortened: as §1

[8] = tested on: palmer pigweed (Amaranthus palmeri); conditions: scale 0 to 100; for Plant response rating, Pigweed, Palmer: Postemergence; for Pigweed, Palmer plant response rating: Preemergence
Procedure, shortened: as §1

[9] = tested on: sandbur (southern sandbur, Cenchrus echinatus); conditions: scale 0 to 100; for Plant response rating, Sandbur: Postemergence; for Sandbur plant response rating: Preemergence
Procedure, shortened: as §1

soybean (Glycine max) = conditions: scale 0 to 100; for Plant response rating, Soybean: Postemergence; for Soybean plant response rating: Preemergence
Procedure, shortened: as §1

[10] = tested on: waterhemp (common waterhemp, Amaranthus rudis); conditions: scale 0 to 100; for Plant response rating, Waterhemp: Postemergence; for Waterhemp plant response rating: Preemergence
Procedure, shortened: as §1

[11] = 500 g ai/ha, scale 0 to 100 (0 no effect, 100 complete control)

## Cn1cc(C(=O)c2cccs2)c(-c2cc(Cl)cc(Cl)c2)n1 [Compound 17]
[1]; 31 g ai/ha
  Plant response rating, Crabgrass, Brazil: 0
[1]; 62 g ai/ha
  Plant response rating, Crabgrass, Brazil: 0
[1]; 125 g ai/ha
  Plant response rating, Crabgrass, Brazil: 0
[1]; 250 g ai/ha
  Plant response rating, Crabgrass, Brazil: 0
[1]; 500 g ai/ha
  Plant response rating, Crabgrass, Brazil: 15
[2]; 31 g ai/ha, scale 0 to 100
  Plant response rating, Arrowleaf Sida: 60
[2]; 62 g ai/ha, scale 0 to 100
  Plant response rating, Arrowleaf Sida: 70
[2]; 125 g ai/ha, scale 0 to 100
  Plant response rating, Arrowleaf Sida: 75
[2]; 250 g ai/ha, scale 0 to 100
  Plant response rating, Arrowleaf Sida: 80
[2]; [11]
  Plant response rating, Arrowleaf Sida: 85
[3]; 31 g ai/ha
  Plant response rating, Barnyardgrass: 0
[3]; 62 g ai/ha
  Plant response rating, Barnyardgrass: 0
[3]; 125 g ai/ha
  Plant response rating, Barnyardgrass: 0
[3]; 250 g ai/ha
  Plant response rating, Barnyardgrass: 0
[3]; 500 g ai/ha
  Plant response rating, Barnyardgrass: 20
Corn (Zea mays); 31 g ai/ha
  Plant response rating, Corn: 0
Corn (Zea mays); 62 g ai/ha
  Plant response rating, Corn: 0
Corn (Zea mays); 125 g ai/ha
  Plant response rating, Corn: 0
Corn (Zea mays); 250 g ai/ha
  Plant response rating, Corn: 0
Corn (Zea mays); 500 g ai/ha
  Plant response rating, Corn: 0
[4]; 31 g ai/ha
  Plant response rating, Dayflower, VA: 0
[4]; 62 g ai/ha
  Plant response rating, Dayflower, VA: 0
[4]; 125 g ai/ha
  Plant response rating, Dayflower, VA: 0
[4]; 250 g ai/ha
  Plant response rating, Dayflower, VA: 0
[4]; 500 g ai/ha
  Plant response rating, Dayflower, VA: 0
[5]; 31 g ai/ha
  Plant response rating, Panicum, Fall: 0
[5]; 62 g ai/ha
  Plant response rating, Panicum, Fall: 0
[5]; 125 g ai/ha
  Plant response rating, Panicum, Fall: 0
[5]; 250 g ai/ha
  Plant response rating, Panicum, Fall: 0
[5]; 500 g ai/ha
  Plant response rating, Panicum, Fall: 0
[6]; 31 g ai/ha
  Plant response rating, Field Bindweed: 0
[6]; 62 g ai/ha
  Plant response rating, Field Bindweed: 10
[6]; 125 g ai/ha
  Plant response rating, Field Bindweed: 20
[6]; 250 g ai/ha
  Plant response rating, Field Bindweed: 30
[6]; 500 g ai/ha
  Plant response rating, Field Bindweed: 30
[7]; 31 g ai/ha
  Plant response rating, Beggarticks: 5
[7]; 62 g ai/ha
  Plant response rating, Beggarticks: 25
[7]; 125 g ai/ha
  Plant response rating, Beggarticks: 35
[7]; 250 g ai/ha
  Plant response rating, Beggarticks: 40
[7]; 500 g ai/ha
  Plant response rating, Beggarticks: 60
[8]; 31 g ai/ha
  Plant response rating, Pigweed, Palmer: 60
[8]; 62 g ai/ha
  Plant response rating, Pigweed, Palmer: 70
[8]; 125 g ai/ha
  Plant response rating, Pigweed, Palmer: 80
[8]; 250 g ai/ha
  Plant response rating, Pigweed, Palmer: 85
[8]; 500 g ai/ha
  Plant response rating, Pigweed, Palmer: 95
[9]; 31 g ai/ha
  Plant response rating, Sandbur: 0
[9]; 62 g ai/ha
  Plant response rating, Sandbur: 0
[9]; 125 g ai/ha
  Plant response rating, Sandbur: 0
[9]; 250 g ai/ha
  Plant response rating, Sandbur: 0
[9]; 500 g ai/ha
  Plant response rating, Sandbur: 10
Soybean (Glycine max); 31 g ai/ha
  Plant response rating, Soybean: 0
Soybean (Glycine max); 62 g ai/ha
  Plant response rating, Soybean: 0
Soybean (Glycine max); 125 g ai/ha
  Plant response rating, Soybean: 0
Soybean (Glycine max); 250 g ai/ha
  Plant response rating, Soybean: 15
Soybean (Glycine max); 500 g ai/ha
  Plant response rating, Soybean: 20
[10]; 31 g ai/ha
  Plant response rating, Waterhemp: 50
[10]; 62 g ai/ha
  Plant response rating, Waterhemp: 80
[10]; 125 g ai/ha
  Plant response rating, Waterhemp: 85
[10]; 250 g ai/ha
  Plant response rating, Waterhemp: 90
[10]; 500 g ai/ha
  Plant response rating, Waterhemp: 95

## O=Cn1cc(C(=O)c2ccccc2)c(-c2cc(Cl)cc(Cl)c2)n1 [Compound 28]
[1]; 31 g ai/ha
  Plant response rating, Crabgrass, Brazil: 0
  Crabgrass, Brazil plant response rating: 0
[1]; 62 g ai/ha
  Plant response rating, Crabgrass, Brazil: 0
  Crabgrass, Brazil plant response rating: 0
[1]; 125 g ai/ha
  Plant response rating, Crabgrass, Brazil: 0
  Crabgrass, Brazil plant response rating: 0
[1]; 250 g ai/ha
  Plant response rating, Crabgrass, Brazil: 0
  Crabgrass, Brazil plant response rating: 35
[1]; 500 g ai/ha
  Plant response rating, Crabgrass, Brazil: 0
  Crabgrass, Brazil plant response rating: 65
[2]; 31 g ai/ha, scale 0 to 100
  Plant response rating, Arrowleaf Sida: 65
  Arrowleaf Sida plant response rating: 0
[2]; 62 g ai/ha, scale 0 to 100
  Plant response rating, Arrowleaf Sida: 60
  Arrowleaf Sida plant response rating: 20
[2]; 125 g ai/ha, scale 0 to 100
  Plant response rating, Arrowleaf Sida: 75
  Arrowleaf Sida plant response rating: 75
[2]; 250 g ai/ha, scale 0 to 100
  Plant response rating, Arrowleaf Sida: 85
  Arrowleaf Sida plant response rating: 90
[2]; [11]
  Plant response rating, Arrowleaf Sida: 90
[2]; 500 g ai/ha, scale 0 to 100
  Arrowleaf Sida plant response rating: 100
[3]; 31 g ai/ha
  Plant response rating, Barnyardgrass: 0
  Barnyardgrass plant response rating: 0
[3]; 62 g ai/ha
  Plant response rating, Barnyardgrass: 0
  Barnyardgrass plant response rating: 0
[3]; 125 g ai/ha
  Plant response rating, Barnyardgrass: 0
  Barnyardgrass plant response rating: 0
[3]; 250 g ai/ha
  Plant response rating, Barnyardgrass: 0
  Barnyardgrass plant response rating: 0
[3]; 500 g ai/ha
  Plant response rating, Barnyardgrass: 0
  Barnyardgrass plant response rating: 0
Corn (Zea mays); 31 g ai/ha
  Plant response rating, Corn: 0
  Corn plant response rating: 0
Corn (Zea mays); 62 g ai/ha
  Plant response rating, Corn: 0
  Corn plant response rating: 0
Corn (Zea mays); 125 g ai/ha
  Plant response rating, Corn: 0
  Corn plant response rating: 0
Corn (Zea mays); 250 g ai/ha
  Plant response rating, Corn: 0
  Corn plant response rating: 0
Corn (Zea mays); 500 g ai/ha
  Plant response rating, Corn: 0
  Corn plant response rating: 0
[4]; 31 g ai/ha
  Plant response rating, Dayflower, VA: 0
  Dayflower, VA plant response rating: 0
[4]; 62 g ai/ha
  Plant response rating, Dayflower, VA: 0
  Dayflower, VA plant response rating: 0
[4]; 125 g ai/ha
  Plant response rating, Dayflower, VA: 0
  Dayflower, VA plant response rating: 0
[4]; 250 g ai/ha
  Plant response rating, Dayflower, VA: 0
  Dayflower, VA plant response rating: 0
[4]; 500 g ai/ha
  Plant response rating, Dayflower, VA: 0
  Dayflower, VA plant response rating: 0
[5]; 31 g ai/ha
  Plant response rating, Panicum, Fall: 0
  Panicum, Fall plant response rating: 0
[5]; 62 g ai/ha
  Plant response rating, Panicum, Fall: 0
  Panicum, Fall plant response rating: 0
[5]; 125 g ai/ha
  Plant response rating, Panicum, Fall: 0
  Panicum, Fall plant response rating: 0
[5]; 250 g ai/ha
  Plant response rating, Panicum, Fall: 0
  Panicum, Fall plant response rating: 0
[5]; 500 g ai/ha
  Plant response rating, Panicum, Fall: 0
  Panicum, Fall plant response rating: 0
[6]; 31 g ai/ha
  Plant response rating, Field Bindweed: 0
  Field Bindweed plant response rating: 0
[6]; 62 g ai/ha
  Plant response rating, Field Bindweed: 0
  Field Bindweed plant response rating: 0
[6]; 125 g ai/ha
  Plant response rating, Field Bindweed: 0
  Field Bindweed plant response rating: 0
[6]; 250 g ai/ha
  Plant response rating, Field Bindweed: 10
  Field Bindweed plant response rating: 0
[6]; 500 g ai/ha
  Plant response rating, Field Bindweed: 20
  Field Bindweed plant response rating: 0
[7]; 31 g ai/ha
  Plant response rating, Beggarticks: 80
  Beggarticks plant response rating: 0
[7]; 62 g ai/ha
  Plant response rating, Beggarticks: 90
  Beggarticks plant response rating: 0
[7]; 125 g ai/ha
  Plant response rating, Beggarticks: 95
  Beggarticks plant response rating: 40
[7]; 250 g ai/ha
  Plant response rating, Beggarticks: 98
  Beggarticks plant response rating: 70
[7]; 500 g ai/ha
  Plant response rating, Beggarticks: 98
  Beggarticks plant response rating: 70
[8]; 31 g ai/ha
  Plant response rating, Pigweed, Palmer: 50
  Pigweed, Palmer plant response rating: 0
[8]; 62 g ai/ha
  Plant response rating, Pigweed, Palmer: 70
  Pigweed, Palmer plant response rating: 0
[8]; 125 g ai/ha
  Plant response rating, Pigweed, Palmer: 70
  Pigweed, Palmer plant response rating: 0
[8]; 250 g ai/ha
  Plant response rating, Pigweed, Palmer: 80
  Pigweed, Palmer plant response rating: 25
[8]; 500 g ai/ha
  Plant response rating, Pigweed, Palmer: 90
  Pigweed, Palmer plant response rating: 100
[9]; 31 g ai/ha
  Plant response rating, Sandbur: 0
  Sandbur plant response rating: 0
[9]; 62 g ai/ha
  Plant response rating, Sandbur: 0
  Sandbur plant response rating: 0
[9]; 125 g ai/ha
  Plant response rating, Sandbur: 0
  Sandbur plant response rating: 0
[9]; 250 g ai/ha
  Plant response rating, Sandbur: 0
  Sandbur plant response rating: 0
[9]; 500 g ai/ha
  Plant response rating, Sandbur: 0
  Sandbur plant response rating: 0
Soybean (Glycine max); 31 g ai/ha
  Plant response rating, Soybean: 0
  Soybean plant response rating: 0
Soybean (Glycine max); 62 g ai/ha
  Plant response rating, Soybean: 0
  Soybean plant response rating: 0
Soybean (Glycine max); 125 g ai/ha
  Plant response rating, Soybean: 0
  Soybean plant response rating: 0
Soybean (Glycine max); 250 g ai/ha
  Plant response rating, Soybean: 0
  Soybean plant response rating: 0
Soybean (Glycine max); 500 g ai/ha
  Plant response rating, Soybean: 0
  Soybean plant response rating: 0
[10]; 31 g ai/ha
  Plant response rating, Waterhemp: 80
  Waterhemp plant response rating: 0
[10]; 62 g ai/ha
  Plant response rating, Waterhemp: 85
  Waterhemp plant response rating: 0
[10]; 125 g ai/ha
  Plant response rating, Waterhemp: 85
  Waterhemp plant response rating: 65
[10]; 250 g ai/ha
  Plant response rating, Waterhemp: 90
  Waterhemp plant response rating: 95
[10]; 500 g ai/ha
  Plant response rating, Waterhemp: 90
  Waterhemp plant response rating: 95
